A short description of the data set: Cytotoxicity activity against human HepG2 cells assessed by CellTiter-Glo luminescent cell viability assay. The data set is classed as toxicity, cell-based. The arrangement: assay stage confirmatory assay, source tissue liver. Conditions: HepG2 cells, read-out: IC50 relative. For orientation: ATP-based viability assays read luminescence as a measure of living cells.

Activity calls are given as the source filed them. No rule for the calls is given here.

The results in this text go back to ChEMBL document CHEMBL5303711, “ECBD screening data for assay EOS300108” (2023).

With `c1coc(CNc2ncnc3ccccc23)c1`, the CC50 is 9.5 µM (inactive). The same measure for `O=C(Nc1ccc(I)cc1)c1ccc(CN2CCOCC2)cc1`: 7.7 µM (inactive); for `COc1ccc(Nc2ssc(=O)c2Cl)cc1OC`: 13.8 µM (active); for `COc1ccc(CN(Cc2cn3c(C)cccc3n2)C2CC2)c(OC)c1`: 9.7 µM (active).

For the compound `CC(C)Cn1cnc(S(=O)(=O)N2CCC[C@@H]2COc2ccc(F)cc2)c1`, the CC50 is 8.4 µM (active). The same measure for `Cc1nc2ccccc2nc1CSCCCS(=O)(=O)C(C)C`: 0.9 µM (active); for `c1ccc(-n2ccc(CNc3ncnc4c3ncn4C3CC3)n2)cc1`: 9.8 µM (active); for `COc1ccc2cc(CN3CCC(n4ccnc4)CC3)ccc2c1`: 11.5 µM (active). The same measure for `C#CCOC1CCN(C(=O)c2ccc(F)c(Br)c2)CC1`: 8.6 µM (active).

As to `CN(C)c1ccnc(NCCc2cc(F)cc3c2OCOC3)n1`, the CC50 was 10.2 µM (active). For the compound `CC(=O)N1N=C(c2ccc(Br)cc2)C[C@H]1c1ccc(O)cc1`, the CC50 is 20.2 µM (inactive). With `c1nc(N2CCN(Cc3ccc4c(c3)OCO4)CC2)c2ccsc2n1` the figure was 5.1 µM (active). The same measure for `O=C(Nc1ccc2c(c1)S(=O)(=O)C=C2)c1ncoc1-c1ccco1`: 10.9 µM (inactive); for `C[C@H](Nc1nc(N)nc2ccccc12)c1ccccc1`: 3.9 µM (active). With `Cc1cc2sc(NC(=O)NCCNS(C)(=O)=O)nc2cc1F` the figure was 2.3 µM (active); with `N#Cc1c(N)[nH]c2cc(Br)ccc12`, 18 µM (inactive); with `C[C@@H](c1ccccc1F)N(Cn1ncc(Cl)c(Cl)c1=O)C1CC1`, 11.4 µM (active).

For `COc1ccc(C(=O)N(C)C)cc1NC(=O)c1ccc2ccccc2n1`, the CC50 is 8.9 µM (active). With `ON=C1C[C@@H](c2ccc(Cl)cc2)Oc2ccccc21` the figure was 2.7 µM (active); with `CCN(Cc1ccc(OC)cc1)Cc1nc2c(F)cccc2[nH]1`, 10.2 µM (active); with `COc1cc2c(cc1F)CN(Cc1cnc3ccccn13)CC2`, 2 µM (active). With `Cc1cc(NC(=O)N2CC=C(c3c[nH]c4ncccc34)CC2)no1` the figure was 9.2 µM (inactive); with `C[C@H](O)CN1CCC(CNCc2ccc(Cl)cc2)CC1`, 7.6 µM (active).

Take `CC(C)[C@H](NCC(=O)N1CCN(c2ccccn2)CC1)c1ccc(Cl)cc1`: the CC50 is 8 µM (active). The same measure for `CC(C)n1ncc2cc(NC(=O)c3cc4ccccc4cc3O)cnc21`: 10 µM (inactive); for `Cc1cc(NCCCN2CCC(C)CC2)c2ccccc2n1`: 6.5 µM (active).

Take `Cn1cc(S(=O)(=O)N2CCC[C@@H]2COc2ccc(F)cc2)cc1C(N)=O`: the CC50 is 0.6 µM (active). `Cc1ccc(NC(=O)NC[C@@H](C(C)C)N2CCN(C)CC2)cc1Cl`: the CC50 is 11.3 µM (active). With `Cc1ccccc1Oc1ccnc(CNC(=O)c2nccn2C)c1` the figure was 1.1 µM (active); with `Cn1cc(S(=O)(=O)N2CCCC2)cc1C(=O)Nc1nc(-c2ccccn2)cs1`, 6.4 µM (inactive).

With `CC1(C)CC[C@H](CO)N(CCS(=O)(=O)c2ccc(C#N)cc2)C1`, the CC50 is 11.7 µM (active).

`CC(=O)c1ccc(NC(=O)c2cccc3cccnc23)cc1`: the CC50 was 0.9 µM (active). The same measure for `Cc1csc(CCNc2cc(N3CCC[C@@H]3CO)ncn2)n1`: 2.4 µM (active); for `CN(C)C(=O)CO[C@@H]1COCC[C@H]1NC(=O)c1cn(C)c2ccccc12`: 6.3 µM (active). The same measure for `Cn1cc(-c2nc(C(=O)Nc3cccnc3-n3cncn3)cs2)cn1`: 2 µM (active); for `CN(c1ccccc1)S(=O)(=O)c1ccc(C(=O)N2CCN(CCOc3ccccc3)CC2)cc1`: 9.1 µM (active). The same measure for `CCN1CCN(c2ccc(C(=O)Nc3nc(-c4cccnc4)cs3)cc2)CC1`: 5.8 µM (active).
